Data: US8802597B2, “Herbicidal pyrimidines” (E I du Pont de Nemours and Company, priority 2003, dated 2014)
Read-outs that look alike come from different tables or passages of the source.

How the values were obtained:
Assay in all cases: Test C pre/postemergence
Assay type in all cases: in vivo
[1] = test system: johnsongrass (Sorghum halepense); conditions: Sorghum halepense; for pest or weed control at 125 g/ha: 125 g ai/ha; for pest or weed control at 250 g/ha: 250 g ai/ha
In short: (§1)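 Applications: preemergence onto seeded soil and postemergence onto 1- to 4-leaf seedlings, compound carried in non-phytotoxic solvent plus surfactant. Kept in greenhouse 12 to 14 days. Scored visually relative to untreated controls, 0 (no effect) to 100 (complete control).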

[2] = test system: kochia (Kochia scoparia); conditions: Bassia scoparia; for pest or weed control at 31 g/ha: 31 g ai/ha; for pest or weed control at 62 g/ha: 62 g ai/ha; for pest or weed control at 125 g/ha: 125 g ai/ha; for pest or weed control at 250 g/ha: 250 g ai/ha
In short: as §1

[3] = test system: morningglory (Ipomoea coccinea); conditions: Ipomoea; for pest or weed control at 31 g/ha: 31 g ai/ha; for pest or weed control at 62 g/ha: 62 g ai/ha; for pest or weed control at 125 g/ha: 125 g ai/ha; for pest or weed control at 250 g/ha: 250 g ai/ha
In short: as §1

[4] = test system: pigweed (Amaranthus retroflexus); conditions: Amaranthus retroflexus; for pest or weed control at 31 g/ha: 31 g ai/ha; for pest or weed control at 62 g/ha: 62 g ai/ha; for pest or weed control at 125 g/ha: 125 g ai/ha; for pest or weed control at 250 g/ha: 250 g ai/ha
In short: as §1

[5] = test system: soybean (Glycine max); conditions: Glycine max; for plant injury at 31 g/ha: 31 g ai/ha; for plant injury at 62 g/ha: 62 g ai/ha; for plant injury at 125 g/ha: 125 g ai/ha; for plant injury at 250 g/ha: 250 g ai/ha
In short: as §1

[6] = test system: woolly cupgrass (Eriochloa villosa); conditions: Eriochloa villosa; for pest or weed control at 31 g/ha: 31 g ai/ha; for pest or weed control at 62 g/ha: 62 g ai/ha; for pest or weed control at 125 g/ha: 125 g ai/ha; for pest or weed control at 250 g/ha: 250 g ai/ha
In short: as §1

[7] = pre-emergence, Preemergence, scale 0 to 100, read-out: Plant response rating, Johnsongrass
[8] = post-emergence, Postemergence, scale 0 to 100 (0 no effect, 100 complete control), read-out: Kochia plant response rating
[9] = pre-emergence, Preemergence, scale 0 to 100, 0 no effect, 100 complete control, read-out: Plant response rating, Kochia
[10] = pre-emergence, Preemergence, scale 0 to 100, read-out: Plant response rating, Kochia
[11] = post-emergence, Postemergence, scale 0 to 100 (0 no effect, 100 complete control), read-out: Morningglory plant response rating
[12] = pre-emergence, Preemergence, scale 0 to 100, 0 no effect, 100 complete control, read-out: Plant response rating, Morningglory
[13] = pre-emergence, Preemergence, scale 0 to 100, read-out: Plant response rating, Morningglory
[14] = post-emergence, Postemergence, scale 0 to 100 (0 no effect, 100 complete control), read-out: Pigweed plant response rating
[15] = pre-emergence, Preemergence, scale 0 to 100, 0 no effect, 100 complete control, read-out: Plant response rating, Pigweed
[16] = pre-emergence, Preemergence, scale 0 to 100, read-out: Plant response rating, Pigweed
[17] = post-emergence, Postemergence, scale 0 to 100 (0 no effect, 100 complete control), read-out: Soybean plant response rating
[18] = pre-emergence, Preemergence, scale 0 to 100, 0 no effect, 100 complete control, read-out: Plant response rating, Soybean
[19] = pre-emergence, Preemergence, scale 0 to 100, read-out: Plant response rating, Soybean
[20] = post-emergence, Postemergence, scale 0 to 100 (0 no effect, 100 complete control), read-out: Cupgrass, Woolly plant response rating
[21] = pre-emergence, Preemergence, scale 0 to 100, 0 no effect, 100 complete control, read-out: Plant response rating, Cupgrass, Woolly
[22] = pre-emergence, Preemergence, scale 0 to 100, read-out: Plant response rating, Cupgrass, Woolly

COC(=O)c1nc(C(C)C)nc(N)c1Br [Compound 3]
20%: pest or weed control at 31 g/ha ([2]; post-emergence, Postemergence, read-out: Plant response rating (scale of 0 to 100), Kochia) | pest or weed control at 125 g/ha [2, 10] | pest or weed control at 125 g/ha [3, 13] | pest or weed control at 31 g/ha [4, 15] | plant injury at 250 g/ha [5, 19]
80%: pest or weed control at 250 g/ha ([4]; post-emergence, Postemergence, scale 0 to 100, read-out: Plant response rating, Pigweed) | pest or weed control at 250 g/ha [4, 16]
65%: pest or weed control at 62 g/ha [2, 8] | pest or weed control at 125 g/ha [3, 11] | pest or weed control at 62 g/ha [4, 14] | pest or weed control at 125 g/ha [4, 16]
0%: pest or weed control at 125 g/ha ([1]; post-emergence, Postemergence, scale 0 to 100 (0 no effect, 100 complete control), read-out: Johnsongrass plant response rating) | pest or weed control at 250 g/ha ([1]; post-emergence, Postemergence, scale 0 to 100, read-out: Plant response rating, Johnsongrass) | pest or weed control at 31 g/ha ([1]; pre-emergence, Preemergence, 31 g ai/ha, scale 0 to 100, 0 no effect, 100 complete control, read-out: Plant response rating, Johnsongrass) | pest or weed control at 62 g/ha ([1]; pre-emergence, Preemergence, 62 g ai/ha, scale 0 to 100, 0 no effect, 100 complete control, read-out: Plant response rating, Johnsongrass) | pest or weed control at 125 g/ha [1, 7] | pest or weed control at 250 g/ha [1, 7] | pest or weed control at 31 g/ha [2, 9] | pest or weed control at 62 g/ha [2, 9] | pest or weed control at 31 g/ha [3, 12] | pest or weed control at 62 g/ha [3, 12] | plant injury at 31 g/ha [5, 18] | plant injury at 62 g/ha [5, 18] | pest or weed control at 31 g/ha ([6]; post-emergence, Postemergence, read-out: Plant response rating (scale of 0 to 100), Cupgrass, Woolly) | pest or weed control at 62 g/ha [6, 20] | pest or weed control at 125 g/ha [6, 20] | pest or weed control at 250 g/ha ([6]; post-emergence, Postemergence, scale 0 to 100, read-out: Plant response rating, Cupgrass, Woolly) | pest or weed control at 31 g/ha [6, 21] | pest or weed control at 62 g/ha [6, 21] | pest or weed control at 125 g/ha [6, 22] | pest or weed control at 250 g/ha [6, 22]
60%: pest or weed control at 62 g/ha [3, 11] | pest or weed control at 31 g/ha ([4]; post-emergence, Postemergence, read-out: Plant response rating (scale of 0 to 100), Pigweed) | plant injury at 31 g/ha ([5]; post-emergence, Postemergence, read-out: Plant response rating (scale of 0 to 100), Soybean)
95%: plant injury at 250 g/ha ([5]; post-emergence, Postemergence, scale 0 to 100, read-out: Plant response rating, Soybean)
50%: pest or weed control at 62 g/ha [4, 15]
75%: pest or weed control at 250 g/ha ([3]; post-emergence, Postemergence, scale 0 to 100, read-out: Plant response rating, Morningglory) | pest or weed control at 125 g/ha [4, 14] | plant injury at 62 g/ha [5, 17]
30%: pest or weed control at 250 g/ha [2, 10]
90%: pest or weed control at 125 g/ha [2, 8] | plant injury at 125 g/ha [5, 17]
15%: plant injury at 125 g/ha [5, 19]
45%: pest or weed control at 31 g/ha ([3]; post-emergence, Postemergence, read-out: Plant response rating (scale of 0 to 100), Morningglory)
35%: pest or weed control at 250 g/ha [3, 13]
100%: pest or weed control at 250 g/ha ([2]; post-emergence, Postemergence, scale 0 to 100, read-out: Plant response rating, Kochia)
